Results reported in patent US20130331345A1, “PUERARIN HYDRATES, PREPARATION METHODS AND USES THEREOF” (priority 2010, published 2013).

Legend:
[1] = Accelerated stability test (40° C., RH75%), sealed in penicillin bottles; format: physicochemical; conditions: accelerated, 40° C.
Experimental: (§1) The sample of the puerarin hydrate above (prepared by method of Example 1) and anhydrous puerarin (anhydrous puerarin was prepared by: drying the hydrate as prepared in Example 1 at 90-105° C. in the presence of phosphorus pentoxide under vacuum for 24-72 hours or more to obtain an anhydrous puerarin, and the water content of anhydrous puerarin was usually lower than 1.0% as measured by Karl Fisher method) were sealed in penicillin bottles to perform accelerated stability test (chromatography conditions: chromatography column: C18 (150 mm×4.6 mm, 5 μm); mobile phase: 0.1% citric acid solution-methanol (75:25); flow rate: 1 ml/min; temperature: room temperature; detection wavelength: 250 nm). […] Hygroscopicity test was performed according to the Pharmacopoeia of the People's Republic of China: about 5 g of anhydrous puerarin and the crystalline hydrate of the present invention were taken, placed in dry watch glasses with constant weight, weighed precisely. Samples were taken separately at 0 h and 48 h of the test at 25° C. and relative humidity of 75%, and hygroscopicity weight gain percentages were calculated.

Long-term stability test = format: physicochemical
[2] = system: chronic ocular hypertension; test: Effects on chronic ocular hypertension of rabbits (dexamethasone model); format: in vivo; conditions: within 24 hours, puerarin hydrate 1% (W/V), betaxolol 0.5% (W/V), monohydrate
Experimental: Chronic Ocular Hypertension Models: 32 rabbits, half male and half female, were subjected to sub-conjunctive injection with 0.5 mg of dexamethasone under corneal limbus, once every other day, for consecutive 3 weeks, to obtain chronic ocular hypertension models, then randomly divided into physiological saline group, betaxolol group [0.5% (W/V)], puerarin hydrate group [1% (W/V)]. The maximum decrease of intraocular pressure was measured within 24 hours.

[3] = system: arrhythmia induced by aconitine; test: Effects on arrhythmia caused by aconitine in rats; format: in vivo, SD rats; conditions: 200 mg · kg^−1 intravenous, n = 10, p < 0.05 vs physiological saline, monohydrate
Experimental: 20 SD rats, male and female, body weight 185±19 g, randomly divided into 2 groups, separately administrated via intravenous injection with physiological saline, puerarin monohydrate (prepared by method of Example 1) (which was added with cosolvent to form an injectable solution) 200 mg·kg^−1. The rats were anesthetized with 3% pentobarbital sodium 40 mg·kg^−1, and fixed in supine position on operating table. The rats were subjected to injection via sublingual vein, after 6 min, subjected to intravenous injection of 0.0025% aconitine at a constant rate, 2 μg·min^−1 (0.08 ml·min^−1), the time of ventricular premature beat (VP), ventricular tachycardia (VT), ventricular fibrillation (VF) and cardiac arrest (CA) were recorded, and corresponding dosages were calculated.

[4] = Hygroscopicity test according to the Pharmacopoeia of the People's Republic of China; format: physicochemical; conditions: 48 h, 25° C., relative humidity 75%; monohydrate
Experimental: as §1

O=c1c(-c2ccc(O)cc2)coc2c([C@@H]3O[C@H](CO)[C@@H](O)[C@H](O)[C@H]3O)c(O)ccc12 [Sample 1, puerarin monohydrate]
Marked content (%) ([1]; sampling time 0 month): 99.5% | Property ([1]; sampling time 0 month): off-white powder | Related substance (%) ([1]; sampling time 0 month): <2% | Marked content (%) ([1]; sampling time 1 month): 99.3% | Property ([1]; sampling time 1 month): off-white powder | Related substance (%) ([1]; sampling time 1 month): <2% | Marked content (%) ([1]; sampling time 2 month): 99.6% | Property ([1]; sampling time 2 month): off-white powder | Related substance (%) ([1]; sampling time 2 month): <2% | Marked content (%) ([1]; sampling time 3 month): 99.4% | Property ([1]; sampling time 3 month): off-white powder | Related substance (%) ([1]; sampling time 3 month): <2% | Marked content (%) ([1]; sampling time 6 month): 99.3% | Property ([1]; sampling time 6 month): off-white powder | Related substance (%) ([1]; sampling time 6 month): <2% | Marked content (%) (Long-term stability test; sampling time 0 month): 99.5% | Property (Long-term stability test; sampling time 0 month): off-white powder | Related substance (%) (Long-term stability test; sampling time 0 month): <2% | Marked content (%) (Long-term stability test; sampling time 3 month): 99.6% | Property (Long-term stability test; sampling time 3 month): off-white powder | Related substance (%) (Long-term stability test; sampling time 3 month): <2% | Marked content (%) (Long-term stability test; sampling time 6 month): 99.5% | Property (Long-term stability test; sampling time 6 month): off-white powder | Related substance (%) (Long-term stability test; sampling time 6 month): <2% | Marked content (%) (Long-term stability test; sampling time 9 month): 99.4% | Property (Long-term stability test; sampling time 9 month): off-white powder | Related substance (%) (Long-term stability test; sampling time 9 month): <2% | Marked content (%) (Long-term stability test; sampling time 12 month): 99.4% | Property (Long-term stability test; sampling time 12 month): off-white powder | Related substance (%) (Long-term stability test; sampling time 12 month): <2% | Maximum decrease of intraocular pressure (mmHg) [2]: 2.6 mmHg | Dose of aconitine causing cardiac arrest (CA) ([3]; listed as PW): 0.0951 ± 0.0086 mg/kg | Dose of aconitine causing ventricular fibrillation (VF) ([3]; listed as PW): 0.0635 ± 0.0077 mg/kg | Dose of aconitine causing ventricular premature beat (VP) ([3]; listed as PW): 0.0331 ± 0.0073 mg/kg | Dose of aconitine causing ventricular tachycardia (VT) ([3]; listed as PW): 0.0449 ± 0.0072 mg/kg | Dose of aconitine causing cardiac arrest (CA) [3]: significantly increased | Dose of aconitine causing ventricular fibrillation (VF) [3]: significantly increased | Dose of aconitine causing ventricular premature beat (VP) [3]: significantly increased | Dose of aconitine causing ventricular tachycardia (VT) [3]: significantly increased | In comparison with 0 h, weight gain, % [4]: 0.12%
